Experimental data published in PubChem BioAssay AID686974 (The Scripps Research Institute Molecular Screening Center, 2013).
Blank lines part the entries; values can stand above or below the compound they belong to. Calls of active or inactive are those of the source.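 Rule for the calls: active = client protein degradation above 50% for Her2 or AKT on Western blot; inactive = client protein degradation below 10%.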

Columns and labels:
[1] = target: RAC-alpha serine/threonine-protein kinase (Homo sapiens) (UniProt P31749); assay: HSP90 client depletion in MCF7 cells – cell-based, Western blot, mechanism study, late-stage follow-up (AID 686974); details: Her2/AKT client degradation, 24 h, AKT, stronger effect = higher value
[2] = target: Receptor tyrosine-protein kinase erbB-2 (Homo sapiens) (UniProt P04626); assay: as above; details: Her2/AKT client degradation, 24 h, stronger effect = higher value
Sequence of Receptor tyrosine-protein kinase erbB-2 (Homo sapiens) (P04626 whole entry, looked up): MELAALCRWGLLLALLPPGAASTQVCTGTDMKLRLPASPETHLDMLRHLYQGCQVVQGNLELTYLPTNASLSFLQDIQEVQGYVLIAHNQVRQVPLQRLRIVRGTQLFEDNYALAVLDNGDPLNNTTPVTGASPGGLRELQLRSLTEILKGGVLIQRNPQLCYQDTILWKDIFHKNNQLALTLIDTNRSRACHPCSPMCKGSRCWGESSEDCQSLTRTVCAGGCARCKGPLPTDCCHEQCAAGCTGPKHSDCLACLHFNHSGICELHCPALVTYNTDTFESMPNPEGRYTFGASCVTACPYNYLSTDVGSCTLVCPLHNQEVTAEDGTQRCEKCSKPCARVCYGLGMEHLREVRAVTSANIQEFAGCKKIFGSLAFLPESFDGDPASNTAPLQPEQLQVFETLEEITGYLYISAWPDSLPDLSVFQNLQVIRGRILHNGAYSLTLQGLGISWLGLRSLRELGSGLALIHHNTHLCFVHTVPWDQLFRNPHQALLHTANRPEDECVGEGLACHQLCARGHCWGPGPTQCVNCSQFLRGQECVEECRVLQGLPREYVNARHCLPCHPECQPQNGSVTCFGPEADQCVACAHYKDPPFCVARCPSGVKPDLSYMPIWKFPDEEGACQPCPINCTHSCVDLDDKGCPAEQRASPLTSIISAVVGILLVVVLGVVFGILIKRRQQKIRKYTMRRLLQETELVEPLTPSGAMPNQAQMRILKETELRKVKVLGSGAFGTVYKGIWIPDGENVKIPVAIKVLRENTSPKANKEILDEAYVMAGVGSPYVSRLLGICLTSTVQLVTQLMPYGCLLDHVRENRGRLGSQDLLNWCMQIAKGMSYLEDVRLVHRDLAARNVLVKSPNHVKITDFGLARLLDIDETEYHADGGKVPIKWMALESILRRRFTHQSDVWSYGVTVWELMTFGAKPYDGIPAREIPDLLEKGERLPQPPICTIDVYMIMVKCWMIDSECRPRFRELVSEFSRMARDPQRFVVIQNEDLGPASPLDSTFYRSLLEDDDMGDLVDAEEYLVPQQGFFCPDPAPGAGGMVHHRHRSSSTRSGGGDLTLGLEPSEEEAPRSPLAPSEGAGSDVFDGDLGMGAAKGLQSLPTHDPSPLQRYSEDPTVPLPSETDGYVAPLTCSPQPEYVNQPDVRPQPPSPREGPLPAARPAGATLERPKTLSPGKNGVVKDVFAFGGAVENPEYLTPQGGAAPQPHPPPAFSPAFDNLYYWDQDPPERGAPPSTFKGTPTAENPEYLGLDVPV

Sequence of RAC-alpha serine/threonine-protein kinase (Homo sapiens) (P31749 whole entry, looked up): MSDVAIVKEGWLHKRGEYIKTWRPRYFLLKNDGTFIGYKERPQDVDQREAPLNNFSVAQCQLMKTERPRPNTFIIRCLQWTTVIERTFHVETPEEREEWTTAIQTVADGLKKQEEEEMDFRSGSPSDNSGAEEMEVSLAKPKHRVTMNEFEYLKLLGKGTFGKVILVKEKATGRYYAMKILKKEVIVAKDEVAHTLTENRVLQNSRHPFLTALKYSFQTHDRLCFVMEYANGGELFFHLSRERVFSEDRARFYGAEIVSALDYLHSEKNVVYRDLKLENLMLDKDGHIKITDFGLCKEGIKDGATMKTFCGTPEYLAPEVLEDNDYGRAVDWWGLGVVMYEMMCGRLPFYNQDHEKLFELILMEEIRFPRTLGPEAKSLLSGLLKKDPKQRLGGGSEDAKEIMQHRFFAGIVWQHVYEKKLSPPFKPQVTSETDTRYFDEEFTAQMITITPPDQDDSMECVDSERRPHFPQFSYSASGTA

client protein degradation ([1]; high dose (five times the growth IC50) 12 µM, low dose (half the growth IC50) 1.2 µM): > 50%
client protein degradation ([2]; Her2, high dose (five times the growth IC50) 12 µM, low dose (half the growth IC50) 1.2 µM): > 50%
SMILES: COc1ccc(NC(=O)c2coc(=O)c(Br)c2)cc1

client protein degradation ([1]; high dose (five times the growth IC50) 37.5 µM, low dose (half the growth IC50) 3.8 µM): < 10% (inactive)
client protein degradation ([2]; Her2, high dose (five times the growth IC50) 37.5 µM, low dose (half the growth IC50) 3.8 µM): > 50%
SMILES: CC(C)CNC(=O)c1coc(=O)c(Br)c1

client protein degradation ([1]; high dose (five times the growth IC50) 136.5 µM, low dose (half the growth IC50) 13.7 µM): < 10% (inactive)
client protein degradation ([2]; Her2, high dose (five times the growth IC50) 136.5 µM, low dose (half the growth IC50) 13.7 µM): > 50%
SMILES: Cc1cccc(NC(=O)c2coc(=O)c(Br)c2)n1

client protein degradation ([1]; high dose (five times the growth IC50) 44.5 µM, low dose (half the growth IC50) 4.5 µM): < 10% (inactive)
client protein degradation ([2]; Her2, high dose (five times the growth IC50) 44.5 µM, low dose (half the growth IC50) 4.5 µM): < 10% (inactive)
SMILES: Cc1cc(NC(=O)c2coc(=O)c(Br)c2)ccc1C(C)C

client protein degradation ([1]; high dose (five times the growth IC50) 147 µM, low dose (half the growth IC50) 14.7 µM): > 50%
client protein degradation ([2]; Her2, high dose (five times the growth IC50) 147 µM, low dose (half the growth IC50) 14.7 µM): > 50%
SMILES: O=C(Nc1ccccc1I)c1coc(=O)c(Br)c1

client protein degradation ([1]; high dose (five times the growth IC50) 246 µM, low dose (half the growth IC50) 24.6 µM): < 10% (inactive)
client protein degradation ([2]; Her2, high dose (five times the growth IC50) 246 µM, low dose (half the growth IC50) 24.6 µM): < 10% (inactive)
SMILES: COC(=O)c1ccc2nc(NC(=O)C3CC3)sc2c1

client protein degradation ([1]; high dose (five times the growth IC50) 64.5 µM, low dose (half the growth IC50) 6.5 µM): < 10% (inactive)
client protein degradation ([2]; Her2, high dose (five times the growth IC50) 64.5 µM, low dose (half the growth IC50) 6.5 µM): > 50%
SMILES: CCCCCCCCOc1ccc(NC(=O)c2coc(=O)c(Br)c2)cc1

client protein degradation ([1]; high dose (five times the growth IC50) 111 µM, low dose (half the growth IC50) 11.1 µM): < 10% (inactive)
client protein degradation ([2]; Her2, high dose (five times the growth IC50) 111 µM, low dose (half the growth IC50) 11.1 µM): < 10% (inactive)
SMILES: CCOc1ccc(-c2nc(CN3CCCCC3CCn3cccn3)c(C)o2)cc1 (configuration not stated)

client protein degradation ([1]; high dose (five times the growth IC50) 53.5 µM, low dose (half the growth IC50) 5.4 µM): < 10% (inactive)
client protein degradation ([2]; Her2, high dose (five times the growth IC50) 53.5 µM, low dose (half the growth IC50) 5.4 µM): > 50%
SMILES: CC(=O)c1ccc(NC(=O)c2coc(=O)c(Br)c2)cc1

client protein degradation ([1]; high dose (five times the growth IC50) 114 µM, low dose (half the growth IC50) 11.4 µM): < 10% (inactive)
client protein degradation ([2]; Her2, high dose (five times the growth IC50) 114 µM, low dose (half the growth IC50) 11.4 µM): > 50%
SMILES: CCCCOc1cccc(NC(=O)c2coc(=O)c(Br)c2)c1

client protein degradation ([1]; high dose (five times the growth IC50) 17.5 µM, low dose (half the growth IC50) 1.8 µM): < 10% (inactive)
client protein degradation ([2]; Her2, high dose (five times the growth IC50) 17.5 µM, low dose (half the growth IC50) 1.8 µM): > 50%
SMILES: O=C(NCc1cccnc1)c1coc(=O)c(Br)c1

client protein degradation ([1]; high dose (five times the growth IC50) 9 µM, low dose (half the growth IC50) 0.9 µM): < 10% (inactive)
client protein degradation ([2]; Her2, high dose (five times the growth IC50) 9 µM, low dose (half the growth IC50) 0.9 µM): > 50%
SMILES: CC(NC(=O)c1coc(=O)c(Br)c1)C1C2CCC3CC(C2)CC31 (configuration not stated)

client protein degradation ([1]; high dose (five times the growth IC50) 10.5 µM, low dose (half the growth IC50) 1.1 µM): < 10% (inactive)
client protein degradation ([2]; Her2, high dose (five times the growth IC50) 10.5 µM, low dose (half the growth IC50) 1.1 µM): > 50%
SMILES: O=C(NCCc1ccc(F)cc1)c1coc(=O)c(Br)c1

client protein degradation ([1]; high dose (five times the growth IC50) 24 µM, low dose (half the growth IC50) 2.4 µM): > 50%
client protein degradation ([2]; Her2, high dose (five times the growth IC50) 24 µM, low dose (half the growth IC50) 2.4 µM): > 50%
SMILES: O=C(NCc1ccco1)c1coc(=O)c(Br)c1

client protein degradation ([1]; high dose (five times the growth IC50) 60.5 µM, low dose (half the growth IC50) 6.1 µM): < 10% (inactive)
client protein degradation ([2]; Her2, high dose (five times the growth IC50) 60.5 µM, low dose (half the growth IC50) 6.1 µM): < 10% (inactive)
SMILES: COc1ccc(NC(=O)c2ccc(NC(=O)c3coc(=O)c(Br)c3)cc2)cc1

client protein degradation ([1]; high dose (five times the growth IC50) 17 µM, low dose (half the growth IC50) 1.7 µM): > 50%
client protein degradation ([2]; Her2, high dose (five times the growth IC50) 17 µM, low dose (half the growth IC50) 1.7 µM): > 50%
SMILES: O=C(Nc1ccc(F)cc1)c1coc(=O)c(Br)c1
